From publication PMC9841523 (Journal of Medicinal Chemistry, 2022)

Assays:
IRAK4 = target: T1, IRAK4 (Homo sapiens, UniProt Q9NWZ3); experiment: KiNativ kinase panel; assay type: cell-based; settings: 1 μM, MCF-7 Cells
T1 construct: MCF7 cells were exposed to; endogenous in cells; host or cells: MCF7
T1 sequence (Q9NWZ3 1-460): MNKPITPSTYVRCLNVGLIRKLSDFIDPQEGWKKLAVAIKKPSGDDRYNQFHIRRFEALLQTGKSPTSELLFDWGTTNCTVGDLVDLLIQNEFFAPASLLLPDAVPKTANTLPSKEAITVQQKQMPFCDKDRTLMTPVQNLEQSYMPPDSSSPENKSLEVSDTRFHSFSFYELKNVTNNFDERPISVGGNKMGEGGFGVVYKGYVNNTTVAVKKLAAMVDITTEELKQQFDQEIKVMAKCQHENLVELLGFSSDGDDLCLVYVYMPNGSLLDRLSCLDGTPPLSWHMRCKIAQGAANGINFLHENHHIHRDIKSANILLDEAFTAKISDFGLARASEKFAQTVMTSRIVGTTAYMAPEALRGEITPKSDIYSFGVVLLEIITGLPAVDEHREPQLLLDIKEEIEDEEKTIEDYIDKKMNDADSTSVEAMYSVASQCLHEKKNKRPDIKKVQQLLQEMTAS

p70S6K, p70S6Kb = experiment: KiNativ kinase panel; assay type: cell-based, human; settings: 1 μM, MCF-7 Cells, ATP Loop
[1] = system: MCF-7 (PIK3CA^E545K) cell line-derived xenograft; experiment: 28-day study in the MCF-7 CDX model; settings: for tumor volume: MCF-7 CDX, once weekly ip, 28-day study, most significant at 3 or 10 mg/kg; for tolerability (body weight): up to 10 mg/kg ip once weekly
Description: Formulation containing transcutol/solutol HS15/H 2O (5/5/90, %w/w/v) was used, with a dose volume at 5 mL/kg.
Methods for xenograft studies.
MCF-7 xenograft studies. Female Balb/c nude mice (Shanghai Lingchang Biotechnology), 6–8 weeks of age, were inoculated subcutaneously in the right flank with MCF-7 (ECACC-
Three days prior to inoculation, mice were fed with drinking water containing β-estradiol (40 μg/mL). When mean tumor volume reached between 200–400 mm 3, mice were randomized into treatment groups (n = 12/group) for efficacy study, and tumor volume was measured twice weekly by caliper measurements for the duration of the study.
compounds were administered by ip injections at indicated doses, once weekly.

MST4, YSK1 = experiment: KiNativ kinase panel; assay type: cell-based, human; settings: 1 μM, MCF-7 Cells, Lys2
PIP5K3 = target: T2, PIP5K3 (Homo sapiens, UniProt Q9Y2I7); experiment: KiNativ kinase panel; assay type: cell-based; settings: 1 μM; MCF-7 Cells; ATP; GGKSGAAFYATEDDRFILK
T2 construct: purchased ActivX Biosciences (KiNativ)

SYK = target: T3, SYK (Homo sapiens, UniProt P43405); experiment: KiNativ kinase panel; assay type: cell-based; settings: 1 μM, MCF-7 Cells
T3 construct: MCF7 cells were exposed to; endogenous in cells; host or cells: MCF7

JNK1, JNK2, JNK3 = experiment: KiNativ kinase panel; assay type: cell-based, human; settings: 1 μM, MCF-7 Cells, Lys2
MARK4 = target: T4, MARK4 (Homo sapiens, UniProt Q96L34); experiment: KiNativ kinase panel; assay type: cell-based; settings: 1 μM, MCF-7 Cells
T4 construct: purchased ActivX Biosciences (KiNativ)
T4 sequence (Q96L34 1-752): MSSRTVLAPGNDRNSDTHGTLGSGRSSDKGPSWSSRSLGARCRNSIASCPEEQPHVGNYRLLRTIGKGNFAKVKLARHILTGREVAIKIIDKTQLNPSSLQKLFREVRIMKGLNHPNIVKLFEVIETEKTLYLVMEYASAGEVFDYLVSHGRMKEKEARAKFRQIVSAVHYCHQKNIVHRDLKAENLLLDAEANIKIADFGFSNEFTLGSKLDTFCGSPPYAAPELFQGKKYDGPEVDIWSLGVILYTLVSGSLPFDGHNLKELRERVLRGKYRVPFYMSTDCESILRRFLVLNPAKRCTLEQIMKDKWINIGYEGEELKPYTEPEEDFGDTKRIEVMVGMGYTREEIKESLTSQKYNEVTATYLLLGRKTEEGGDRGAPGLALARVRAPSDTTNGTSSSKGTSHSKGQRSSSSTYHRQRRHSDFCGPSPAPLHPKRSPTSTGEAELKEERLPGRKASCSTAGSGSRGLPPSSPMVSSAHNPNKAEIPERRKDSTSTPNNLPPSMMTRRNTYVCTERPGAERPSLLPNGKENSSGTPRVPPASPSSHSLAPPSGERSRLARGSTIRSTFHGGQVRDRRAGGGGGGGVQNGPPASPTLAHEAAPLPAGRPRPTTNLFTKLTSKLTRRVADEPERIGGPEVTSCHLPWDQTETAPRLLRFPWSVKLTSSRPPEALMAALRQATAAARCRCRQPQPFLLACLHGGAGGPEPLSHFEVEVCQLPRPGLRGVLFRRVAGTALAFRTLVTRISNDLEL

MAP4K3 = target: T5, MAP4K3 (Homo sapiens, UniProt Q8IVH8); experiment: KiNativ kinase panel; assay type: cell-based; settings: 1 μM, MCF-7 Cells
T5 construct: MCF7 cells were exposed to; endogenous in cells; host or cells: MCF7
T5 sequence (Q8IVH8 1-894): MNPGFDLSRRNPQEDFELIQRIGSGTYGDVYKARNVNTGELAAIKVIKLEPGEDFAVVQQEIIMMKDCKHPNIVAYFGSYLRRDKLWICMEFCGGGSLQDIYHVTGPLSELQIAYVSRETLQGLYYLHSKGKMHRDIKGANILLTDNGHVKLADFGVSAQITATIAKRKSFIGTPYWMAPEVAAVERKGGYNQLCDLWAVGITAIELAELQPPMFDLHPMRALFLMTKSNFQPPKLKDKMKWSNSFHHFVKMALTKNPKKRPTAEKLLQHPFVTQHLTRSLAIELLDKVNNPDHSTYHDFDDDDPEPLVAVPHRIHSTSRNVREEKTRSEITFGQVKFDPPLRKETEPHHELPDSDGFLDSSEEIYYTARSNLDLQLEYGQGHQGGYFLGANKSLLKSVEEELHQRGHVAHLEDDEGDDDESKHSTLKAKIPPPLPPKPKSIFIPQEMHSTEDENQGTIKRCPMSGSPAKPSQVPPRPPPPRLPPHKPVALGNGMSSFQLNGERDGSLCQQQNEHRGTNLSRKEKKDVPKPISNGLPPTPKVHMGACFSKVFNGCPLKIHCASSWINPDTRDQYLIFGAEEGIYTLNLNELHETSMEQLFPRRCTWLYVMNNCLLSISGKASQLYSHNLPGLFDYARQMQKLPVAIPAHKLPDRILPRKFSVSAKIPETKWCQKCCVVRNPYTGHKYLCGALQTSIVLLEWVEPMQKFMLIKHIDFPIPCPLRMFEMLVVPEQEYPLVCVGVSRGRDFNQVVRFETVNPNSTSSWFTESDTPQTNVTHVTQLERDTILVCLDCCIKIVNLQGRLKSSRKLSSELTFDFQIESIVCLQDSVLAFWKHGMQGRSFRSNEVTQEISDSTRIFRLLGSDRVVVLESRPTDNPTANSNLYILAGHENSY

MARK2, MARK3 = experiment: KiNativ kinase panel; assay type: cell-based, human; settings: 1 μM, MCF-7 Cells, Lys2

T2 sequence (Q9Y2I7 whole entry): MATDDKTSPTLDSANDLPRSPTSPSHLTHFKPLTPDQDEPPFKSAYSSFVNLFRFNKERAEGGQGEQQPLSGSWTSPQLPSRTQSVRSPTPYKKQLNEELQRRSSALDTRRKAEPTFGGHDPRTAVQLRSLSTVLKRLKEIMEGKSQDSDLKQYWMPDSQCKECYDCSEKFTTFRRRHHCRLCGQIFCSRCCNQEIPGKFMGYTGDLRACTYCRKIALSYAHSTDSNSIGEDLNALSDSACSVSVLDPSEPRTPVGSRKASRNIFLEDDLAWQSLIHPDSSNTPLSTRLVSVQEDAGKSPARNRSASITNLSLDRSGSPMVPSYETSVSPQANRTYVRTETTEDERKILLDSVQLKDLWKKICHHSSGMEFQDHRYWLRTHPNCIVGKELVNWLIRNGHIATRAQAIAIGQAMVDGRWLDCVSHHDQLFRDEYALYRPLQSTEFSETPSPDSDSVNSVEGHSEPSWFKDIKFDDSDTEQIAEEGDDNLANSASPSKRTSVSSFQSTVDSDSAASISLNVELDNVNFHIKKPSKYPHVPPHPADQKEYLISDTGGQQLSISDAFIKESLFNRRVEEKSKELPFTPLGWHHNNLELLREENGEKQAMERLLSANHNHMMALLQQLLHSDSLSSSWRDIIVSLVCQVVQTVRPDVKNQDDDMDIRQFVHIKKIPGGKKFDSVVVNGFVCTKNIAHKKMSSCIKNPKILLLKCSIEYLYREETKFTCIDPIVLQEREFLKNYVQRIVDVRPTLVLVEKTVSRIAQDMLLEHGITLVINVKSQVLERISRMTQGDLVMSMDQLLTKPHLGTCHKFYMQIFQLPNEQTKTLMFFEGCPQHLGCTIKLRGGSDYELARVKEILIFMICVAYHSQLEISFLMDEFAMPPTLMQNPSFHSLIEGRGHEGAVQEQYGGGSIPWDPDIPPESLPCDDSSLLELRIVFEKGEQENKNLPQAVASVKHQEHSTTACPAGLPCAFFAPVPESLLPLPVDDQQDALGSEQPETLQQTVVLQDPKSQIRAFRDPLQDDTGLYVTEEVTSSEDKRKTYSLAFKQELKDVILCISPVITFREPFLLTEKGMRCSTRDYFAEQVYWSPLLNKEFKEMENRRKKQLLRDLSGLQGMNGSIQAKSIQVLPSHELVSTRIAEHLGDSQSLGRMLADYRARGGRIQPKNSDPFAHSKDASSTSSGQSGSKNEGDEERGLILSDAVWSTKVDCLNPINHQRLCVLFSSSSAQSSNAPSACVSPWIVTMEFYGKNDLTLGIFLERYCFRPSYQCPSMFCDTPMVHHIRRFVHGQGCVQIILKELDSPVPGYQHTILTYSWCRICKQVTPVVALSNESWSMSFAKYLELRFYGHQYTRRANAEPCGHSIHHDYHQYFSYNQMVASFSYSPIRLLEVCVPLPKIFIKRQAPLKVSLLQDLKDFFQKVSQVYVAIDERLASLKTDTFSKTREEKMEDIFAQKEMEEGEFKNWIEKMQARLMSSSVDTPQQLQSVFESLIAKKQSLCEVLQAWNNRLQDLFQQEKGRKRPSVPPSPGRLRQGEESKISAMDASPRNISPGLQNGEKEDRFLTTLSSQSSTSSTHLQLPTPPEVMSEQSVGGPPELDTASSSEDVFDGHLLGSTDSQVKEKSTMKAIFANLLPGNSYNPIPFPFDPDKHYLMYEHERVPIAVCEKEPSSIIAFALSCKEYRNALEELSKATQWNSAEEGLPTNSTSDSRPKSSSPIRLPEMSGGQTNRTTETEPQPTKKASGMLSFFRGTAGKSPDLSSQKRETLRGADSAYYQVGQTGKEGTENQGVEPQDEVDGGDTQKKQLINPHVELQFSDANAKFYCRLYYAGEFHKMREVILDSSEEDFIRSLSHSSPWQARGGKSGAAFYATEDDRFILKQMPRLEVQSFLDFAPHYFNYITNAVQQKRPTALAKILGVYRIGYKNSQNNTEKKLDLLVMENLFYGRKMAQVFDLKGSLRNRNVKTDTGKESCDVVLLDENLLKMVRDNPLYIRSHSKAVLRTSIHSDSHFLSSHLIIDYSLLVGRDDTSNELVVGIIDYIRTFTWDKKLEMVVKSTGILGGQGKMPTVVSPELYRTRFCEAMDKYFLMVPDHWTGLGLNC

SMILES	KiNativ Kinase Panel Data (IRAK4; Lys1, GYVNNTTVAVKK)	KiNativ Kinase Panel Data (IRAK4; Lys2, DIKSANILLDEAFTAK)	tumor volume [1]	tolerability (body weight) [1]	KiNativ Kinase Panel Data (PIP5K3)	KiNativ Kinase Panel Data (SYK; Activation Loop, ISDFGLSKALR)	KiNativ Kinase Panel Data (SYK; Lys1, TVAVKILK)	KiNativ Kinase Panel Data (MARK4; Lys2, DLKAENLLLDAEANIK)	KiNativ Kinase Panel Data (MAP4K3; Lys1, NVNTGELAAIKVIK)	KiNativ Kinase Panel Data (MAP4K3; Lys2, DIKGANILLTDNGHVK)	further results
CO[C@H]1C[C@@H]2CC[C@@H](C)[C@@](O)(O2)C(=O)C(=O)N2CCCC[C@H]2C(=O)O[C@H]([C@H](C)C[C@@H]2CC[C@@H](OC(=O)NCCOCCOCCOCCOCCOCCOCCOCCOCCC(=O)NCCS(=O)(=O)c3ccc(C(=O)N4CCOc5ccc(-c6ccc(N)nc6)cc5C4)c(C)c3F)[C@H](OC)C2)C[C@@H](O)[C@H](C)/C=C(\C)[C@@H](O)[C@@H](OC)C(=O)[C@H](C)C[C@H](C)/C=C/C=C/C=C/1C [compound 40]	-35.0	-35.4	reduction in tumor volume	acceptable tolerability profile	19.9	-14.3	-3.7	22.2	-19.2	69.9	KiNativ Kinase Panel Data (p70S6K, p70S6Kb; GGYGKVFQVR): -4.7; KiNativ Kinase Panel Data (MST4, YSK1; DIKAANVLLSEQGDVK): -10.1; KiNativ Kinase Panel Data (SYK; Activation Loop, AQTHGKWPVK): 13.3; KiNativ Kinase Panel Data (JNK1, JNK2, JNK3; DLKPSNIVVK): -9.5; KiNativ Kinase Panel Data (MARK4; Lys1, EVAIKIIDKTQLNPSSLQK): 24.2; KiNativ Kinase Panel Data (MARK2, MARK3; DLKAENLLLDADMNIK): 15.7
CO[C@H]1C[C@@H]2CC[C@@H](C)[C@@](O)(O2)C(=O)C(=O)N2CCCC[C@H]2C(=O)O[C@H]([C@H](C)C[C@@H]2CC[C@@H](OC(=O)NCCOCCOCCOCCOCCOCCOCCOCCOCCC(=O)N3CCc4cc(Cn5nc(-c6ccc7oc(N)nc7c6)c6c(N)ncnc65)ccc4C3)[C@H](OC)C2)C[C@@H](O)[C@H](C)/C=C(\C)[C@@H](O)[C@@H](OC)C(=O)[C@H](C)C[C@H](C)/C=C/C=C/C=C/1C [compound 38]	-7.0	-19.3	reduction in tumor volume	acceptable tolerability profile	0.8	18.4	14.0	20.6	12.2	-6.9	KiNativ Kinase Panel Data (p70S6K, p70S6Kb; […]): 20.1; KiNativ Kinase Panel Data (MST4, YSK1; […]): 10.5; KiNativ Kinase Panel Data (SYK; Activation Loop, […]): 6.4; KiNativ Kinase Panel Data (JNK1, JNK2, JNK3; […]): 13.8; KiNativ Kinase Panel Data (MARK4; Lys1, […]): 7.0; KiNativ Kinase Panel Data (MARK2, MARK3; […]): -0.4
